Structures are written as SMILES. The source made the active and inactive calls. The rule behind the calls is not given here. A value given as a limit tells only on which side of the number the result lay.

The subject of assay [1] is Blepharisma japonicum. The assay is described as follows: Inhibition of blepharismone-induced monotypic pairing of Blepharisma japonicum R1072 upto 1 mM. Format: functional.
Assay [2] concerns Blepharisma japonicum. The assay is described as follows: Inhibition of blepharismone-induced monotypic pairing of Blepharisma japonicum R1072. Format: functional.

The molecule `O=C(Cc1ccc(-c2ccccc2)cc1)Nc1ccc(O)cc1C(=O)C[C@H](O)C(=O)O` displayed an Inhibitory concentration with Blepharisma japonicum [1] of 4.8 µM. Molecule `CC(=O)c1ccccc1NC(=O)CCCc1ccc2ccc3cccc4ccc1c2c34` displayed an Inhibitory concentration in the assay with Blepharisma japonicum [1] of over 1000 µM. In the assay with Blepharisma japonicum [2], the result was inactive. `O=C(CCCc1ccc2ccc3cccc4ccc1c2c34)Nc1ccc(O)cc1C(=O)C[C@H](O)C(=O)O` gave an Inhibitory concentration in the assay on Blepharisma japonicum [1] of 4 µM.

Consider `CC(=O)c1ccccc1NC(=O)Cc1ccc(-c2ccccc2)cc1`, for which, in the assay on Blepharisma japonicum [1], the Inhibitory concentration is over 1000 µM. Besides, the result in the assay with Blepharisma japonicum [2] was inactive.

The values are drawn from ChEMBL document CHEMBL1146353, “Synthesis of fluorescent molecular probes specific for the receptor of blepharismone, a mating-inducing pheromone of the ciliate Blepharisma japonicum” (2007).
